{
  "source": "paper PMC6199309",
  "about": "“A therapeutic approach to pantothenate kinase associated neurodegeneration” (Nature Communications, 2018)",
  "test_in_all_cases": "KINOMEscan",
  "format_in_all_cases": "binding",
  "conditions_in_all_cases": "read-out: %Ctrl @ 10000nM",
  "key": {"[1]": {"biological_target": "T1, ABL1(H396P)-phosphorylated (Homo sapiens, UniProt P00519, H396P)", "T1 construct": "purchased DiscoverX KINOMEscan"}, "[2]": {"biological_target": "T2, AKT2 (Homo sapiens, UniProt P31751)", "T2 construct": "purchased DiscoverX KINOMEscan"}, "[3]": {"biological_target": "T3, ALK(L1196M) (Homo sapiens, UniProt Q9UM73, L1196M)", "T3 construct": "purchased DiscoverX KINOMEscan"}, "[4]": {"biological_target": "T4, BRAF (Homo sapiens, UniProt P15056)", "T4 construct": "purchased DiscoverX KINOMEscan"}, "[5]": {"biological_target": "T5, BRK (Homo sapiens, UniProt Q13882)", "T5 construct": "purchased DiscoverX KINOMEscan"}, "[6]": {"biological_target": "T6, CAMK1 (Homo sapiens, UniProt Q14012)", "T6 construct": "purchased DiscoverX KINOMEscan"}, "[7]": {"biological_target": "T7, CDK11 (Homo sapiens, UniProt Q9BWU1)", "T7 construct": "purchased DiscoverX KINOMEscan"}, "[8]": {"biological_target": "T8, CDKL1 (Homo sapiens, UniProt Q00532)", "T8 construct": "purchased DiscoverX KINOMEscan"}, "[9]": {"biological_target": "T9, CDKL2 (Homo sapiens, UniProt Q92772)", "T9 construct": "purchased DiscoverX KINOMEscan"}, "[10]": {"biological_target": "T10, CSNK1D (Homo sapiens, UniProt P48730)", "T10 construct": "purchased DiscoverX KINOMEscan"}, "[11]": {"biological_target": "T11, EGFR (Homo sapiens, UniProt P00533)", "T11 construct": "purchased DiscoverX KINOMEscan"}, "[12]": {"biological_target": "T12, ERBB3 (Homo sapiens, UniProt P21860)", "T12 construct": "purchased DiscoverX KINOMEscan"}, "[13]": {"biological_target": "T13, FES (Homo sapiens, UniProt P07332)", "T13 construct": "purchased DiscoverX KINOMEscan"}, "[14]": {"biological_target": "T14, FGFR4 (Homo sapiens, UniProt P22455)", "T14 construct": "purchased DiscoverX KINOMEscan"}, "[15]": {"biological_target": "T15, GRK1 (Homo sapiens, UniProt Q15835)", "T15 construct": "purchased DiscoverX KINOMEscan"}, "[16]": {"biological_target": "T16, HUNK (Homo sapiens, UniProt P57058)", "T16 construct": "purchased DiscoverX KINOMEscan"}, "[17]": {"biological_target": "T17, JNK1 (Homo sapiens, UniProt P45983)", "T17 construct": "purchased DiscoverX KINOMEscan"}, "[18]": {"biological_target": "T18, KIT-autoinhibited (Homo sapiens, UniProt P10721)", "T18 construct": "purchased DiscoverX KINOMEscan", "T18 sequence (P10721 26-976)": "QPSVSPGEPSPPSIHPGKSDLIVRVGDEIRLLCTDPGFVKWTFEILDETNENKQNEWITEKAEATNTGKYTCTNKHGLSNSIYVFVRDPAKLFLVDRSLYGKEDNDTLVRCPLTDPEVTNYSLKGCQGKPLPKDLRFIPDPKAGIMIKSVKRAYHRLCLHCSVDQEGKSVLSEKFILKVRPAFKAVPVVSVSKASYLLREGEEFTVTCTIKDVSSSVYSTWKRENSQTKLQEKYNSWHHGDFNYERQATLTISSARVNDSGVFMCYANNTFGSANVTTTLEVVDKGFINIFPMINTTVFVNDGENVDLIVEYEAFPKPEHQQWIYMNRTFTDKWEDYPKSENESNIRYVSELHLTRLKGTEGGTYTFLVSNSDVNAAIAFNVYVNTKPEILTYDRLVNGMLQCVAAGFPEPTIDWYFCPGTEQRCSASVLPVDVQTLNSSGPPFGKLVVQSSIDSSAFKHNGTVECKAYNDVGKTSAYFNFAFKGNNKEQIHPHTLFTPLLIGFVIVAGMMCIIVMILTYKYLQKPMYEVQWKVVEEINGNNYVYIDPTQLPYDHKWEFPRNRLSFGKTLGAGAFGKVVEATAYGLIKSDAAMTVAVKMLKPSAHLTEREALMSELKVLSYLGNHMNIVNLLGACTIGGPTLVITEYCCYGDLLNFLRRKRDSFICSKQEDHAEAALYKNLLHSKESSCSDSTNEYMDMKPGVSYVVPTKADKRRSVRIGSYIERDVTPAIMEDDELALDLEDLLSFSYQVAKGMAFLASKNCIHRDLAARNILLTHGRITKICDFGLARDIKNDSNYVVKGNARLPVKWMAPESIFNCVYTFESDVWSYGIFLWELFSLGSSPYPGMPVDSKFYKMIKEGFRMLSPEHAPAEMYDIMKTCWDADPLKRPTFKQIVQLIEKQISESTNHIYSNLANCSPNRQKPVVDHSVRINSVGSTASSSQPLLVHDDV"}, "[19]": {"biological_target": "T19, LATS2 (Homo sapiens, UniProt Q9NRM7)", "T19 construct": "purchased DiscoverX KINOMEscan"}, "[20]": {"biological_target": "T20, LIMK1 (Homo sapiens, UniProt P53667)", "T20 construct": "purchased DiscoverX KINOMEscan"}, "[21]": {"biological_target": "T21, LKB1 (Homo sapiens, UniProt Q15831)", "T21 construct": "purchased DiscoverX KINOMEscan"}, "[22]": {"biological_target": "T22, MAK (Homo sapiens, UniProt P20794)", "T22 construct": "purchased DiscoverX KINOMEscan"}, "[23]": {"biological_target": "T23, MAP3K3 (Homo sapiens, UniProt Q99759)", "T23 construct": "purchased DiscoverX KINOMEscan"}, "[24]": {"biological_target": "T24, MARK3 (Homo sapiens, UniProt P27448)", "T24 construct": "purchased DiscoverX KINOMEscan"}, "[25]": {"biological_target": "T25, MERTK (Homo sapiens, UniProt Q12866)", "T25 construct": "purchased DiscoverX KINOMEscan"}, "[26]": {"biological_target": "T26, MKNK1 (Homo sapiens, UniProt Q9BUB5)", "T26 construct": "purchased DiscoverX KINOMEscan"}, "[27]": {"biological_target": "T27, MST4 (Homo sapiens, UniProt Q9P289)", "T27 construct": "purchased DiscoverX KINOMEscan"}, "[28]": {"biological_target": "T28, MYLK (Homo sapiens, UniProt Q15746)", "T28 construct": "purchased DiscoverX KINOMEscan"}, "[29]": {"biological_target": "T29, p38-beta (Homo sapiens, UniProt Q15759)", "T29 construct": "purchased DiscoverX KINOMEscan"}, "[30]": {"biological_target": "T30, p38-delta (Homo sapiens, UniProt O15264)", "T30 construct": "purchased DiscoverX KINOMEscan"}, "[31]": {"biological_target": "T31, PCTK1 (Homo sapiens, UniProt Q00536)", "T31 construct": "purchased DiscoverX KINOMEscan"}, "[32]": {"biological_target": "T32, PIK3CA(H1047L) (Homo sapiens, UniProt P42336, H1047L)", "T32 construct": "purchased DiscoverX KINOMEscan", "T32 sequence (P42336 whole entry H1047L)": "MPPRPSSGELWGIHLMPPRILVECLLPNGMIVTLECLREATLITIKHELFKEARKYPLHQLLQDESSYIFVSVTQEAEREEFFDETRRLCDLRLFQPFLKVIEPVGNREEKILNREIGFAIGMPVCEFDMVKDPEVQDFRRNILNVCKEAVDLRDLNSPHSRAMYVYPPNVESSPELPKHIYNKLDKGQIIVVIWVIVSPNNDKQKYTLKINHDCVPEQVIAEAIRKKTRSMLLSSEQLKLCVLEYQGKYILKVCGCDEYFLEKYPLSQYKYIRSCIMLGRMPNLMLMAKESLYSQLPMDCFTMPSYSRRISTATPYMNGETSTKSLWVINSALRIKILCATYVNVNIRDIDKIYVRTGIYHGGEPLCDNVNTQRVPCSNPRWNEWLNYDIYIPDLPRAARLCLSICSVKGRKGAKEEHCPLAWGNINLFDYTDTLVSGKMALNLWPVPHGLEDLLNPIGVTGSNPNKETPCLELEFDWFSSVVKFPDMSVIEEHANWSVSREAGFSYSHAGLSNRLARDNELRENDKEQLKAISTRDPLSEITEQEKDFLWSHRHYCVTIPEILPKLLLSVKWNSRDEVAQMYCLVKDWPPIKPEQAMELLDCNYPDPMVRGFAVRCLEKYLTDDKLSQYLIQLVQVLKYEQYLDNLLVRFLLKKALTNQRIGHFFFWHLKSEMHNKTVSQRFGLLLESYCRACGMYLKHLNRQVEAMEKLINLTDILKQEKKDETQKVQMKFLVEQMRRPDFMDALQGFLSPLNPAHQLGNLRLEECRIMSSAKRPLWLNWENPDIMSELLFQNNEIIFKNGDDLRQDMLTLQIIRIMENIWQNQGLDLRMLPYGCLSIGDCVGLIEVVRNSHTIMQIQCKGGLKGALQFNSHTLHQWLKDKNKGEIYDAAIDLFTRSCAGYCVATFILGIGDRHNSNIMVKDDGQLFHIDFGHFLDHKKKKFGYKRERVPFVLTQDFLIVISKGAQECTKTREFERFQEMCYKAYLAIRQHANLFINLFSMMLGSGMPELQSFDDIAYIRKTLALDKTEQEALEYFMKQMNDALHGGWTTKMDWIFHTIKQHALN"}, "[33]": {"biological_target": "T33, PIK3CA(I800L) (Homo sapiens, UniProt P42336, I800L)", "T33 construct": "purchased DiscoverX KINOMEscan", "T33 sequence (P42336 whole entry I800L)": "as the sequence (P42336 whole entry H1047L) above, with I800L, L1047H counted along it"}, "[34]": {"biological_target": "T34, PLK2 (Homo sapiens, UniProt Q9NYY3)", "T34 construct": "purchased DiscoverX KINOMEscan"}, "[35]": {"biological_target": "T35, RET (Homo sapiens, UniProt P07949)", "T35 construct": "purchased DiscoverX KINOMEscan", "T35 sequence (P07949 29-1114)": "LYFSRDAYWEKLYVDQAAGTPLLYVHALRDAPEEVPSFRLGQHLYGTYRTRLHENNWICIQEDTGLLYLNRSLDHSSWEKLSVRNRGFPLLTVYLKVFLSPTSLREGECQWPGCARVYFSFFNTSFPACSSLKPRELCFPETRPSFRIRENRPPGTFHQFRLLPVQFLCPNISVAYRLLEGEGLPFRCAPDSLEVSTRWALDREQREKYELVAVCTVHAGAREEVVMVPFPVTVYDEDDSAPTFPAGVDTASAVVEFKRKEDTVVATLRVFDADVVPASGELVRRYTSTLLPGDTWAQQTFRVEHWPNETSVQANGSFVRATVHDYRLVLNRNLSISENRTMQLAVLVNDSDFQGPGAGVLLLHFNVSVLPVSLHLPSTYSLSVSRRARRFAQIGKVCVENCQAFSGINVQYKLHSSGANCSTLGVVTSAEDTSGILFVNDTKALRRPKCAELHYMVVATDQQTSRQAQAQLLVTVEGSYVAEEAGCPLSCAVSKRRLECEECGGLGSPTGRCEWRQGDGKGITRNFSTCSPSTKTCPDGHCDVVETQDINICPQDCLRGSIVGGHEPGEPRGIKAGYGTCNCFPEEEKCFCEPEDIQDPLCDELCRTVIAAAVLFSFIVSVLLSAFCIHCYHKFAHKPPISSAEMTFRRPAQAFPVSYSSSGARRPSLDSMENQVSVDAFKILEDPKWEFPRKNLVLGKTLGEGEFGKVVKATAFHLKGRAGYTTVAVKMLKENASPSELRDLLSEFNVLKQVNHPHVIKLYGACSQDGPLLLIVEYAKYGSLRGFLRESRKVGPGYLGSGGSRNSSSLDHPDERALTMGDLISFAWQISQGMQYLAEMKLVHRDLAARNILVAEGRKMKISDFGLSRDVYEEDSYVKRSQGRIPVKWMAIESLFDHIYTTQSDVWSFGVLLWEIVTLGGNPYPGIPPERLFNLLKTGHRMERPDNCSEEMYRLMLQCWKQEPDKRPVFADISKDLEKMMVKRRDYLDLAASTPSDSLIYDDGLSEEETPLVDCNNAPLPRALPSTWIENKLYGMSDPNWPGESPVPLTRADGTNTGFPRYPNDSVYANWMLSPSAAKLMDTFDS"}, "[36]": {"biological_target": "T36, SgK110 (Homo sapiens, UniProt P0C264)", "T36 construct": "purchased DiscoverX KINOMEscan"}, "[37]": {"biological_target": "T37, SGK3 (Homo sapiens, UniProt Q96BR1)", "T37 construct": "purchased DiscoverX KINOMEscan"}, "[38]": {"biological_target": "T38, SLK (Homo sapiens, UniProt Q9H2G2)", "T38 construct": "purchased DiscoverX KINOMEscan"}, "[39]": {"biological_target": "T39, SNARK (Homo sapiens, UniProt Q9H093)", "T39 construct": "purchased DiscoverX KINOMEscan"}, "[40]": {"biological_target": "T40, TGFBR2 (Homo sapiens, UniProt P37173)", "T40 construct": "purchased DiscoverX KINOMEscan"}, "[41]": {"biological_target": "T41, TNNI3K (Homo sapiens, UniProt Q59H18)", "T41 construct": "purchased DiscoverX KINOMEscan"}, "[42]": {"biological_target": "T42, YANK1 (Homo sapiens, UniProt Q8WU08)", "T42 construct": "DNA label for qPCR (T7 phage fusion or DNA tag); purchased DiscoverX scanMAX; host or cells: E. coli BL21-derived (T7 phage) or HEK-293", "T42 sequence (Q8WU08 whole entry, the tested form may be a part)": "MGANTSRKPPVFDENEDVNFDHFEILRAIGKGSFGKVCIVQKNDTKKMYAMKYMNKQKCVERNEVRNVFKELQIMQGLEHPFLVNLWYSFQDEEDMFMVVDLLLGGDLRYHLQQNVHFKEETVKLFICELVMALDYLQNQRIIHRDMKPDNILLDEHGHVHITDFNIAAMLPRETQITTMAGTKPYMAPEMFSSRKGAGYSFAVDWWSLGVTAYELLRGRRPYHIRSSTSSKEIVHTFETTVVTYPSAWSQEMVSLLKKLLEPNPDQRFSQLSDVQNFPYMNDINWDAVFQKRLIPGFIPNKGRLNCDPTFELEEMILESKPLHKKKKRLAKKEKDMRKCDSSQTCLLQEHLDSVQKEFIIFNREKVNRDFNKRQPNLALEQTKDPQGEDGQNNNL"}, "[43]": {"biological_target": "T43, YSK4 (Homo sapiens, UniProt Q56UN5)", "T43 construct": "purchased DiscoverX scanMAX; host or cells: E. coli BL21-derived host (T7 phage) or HEK-293", "T43 sequence (Q56UN5 whole entry)": "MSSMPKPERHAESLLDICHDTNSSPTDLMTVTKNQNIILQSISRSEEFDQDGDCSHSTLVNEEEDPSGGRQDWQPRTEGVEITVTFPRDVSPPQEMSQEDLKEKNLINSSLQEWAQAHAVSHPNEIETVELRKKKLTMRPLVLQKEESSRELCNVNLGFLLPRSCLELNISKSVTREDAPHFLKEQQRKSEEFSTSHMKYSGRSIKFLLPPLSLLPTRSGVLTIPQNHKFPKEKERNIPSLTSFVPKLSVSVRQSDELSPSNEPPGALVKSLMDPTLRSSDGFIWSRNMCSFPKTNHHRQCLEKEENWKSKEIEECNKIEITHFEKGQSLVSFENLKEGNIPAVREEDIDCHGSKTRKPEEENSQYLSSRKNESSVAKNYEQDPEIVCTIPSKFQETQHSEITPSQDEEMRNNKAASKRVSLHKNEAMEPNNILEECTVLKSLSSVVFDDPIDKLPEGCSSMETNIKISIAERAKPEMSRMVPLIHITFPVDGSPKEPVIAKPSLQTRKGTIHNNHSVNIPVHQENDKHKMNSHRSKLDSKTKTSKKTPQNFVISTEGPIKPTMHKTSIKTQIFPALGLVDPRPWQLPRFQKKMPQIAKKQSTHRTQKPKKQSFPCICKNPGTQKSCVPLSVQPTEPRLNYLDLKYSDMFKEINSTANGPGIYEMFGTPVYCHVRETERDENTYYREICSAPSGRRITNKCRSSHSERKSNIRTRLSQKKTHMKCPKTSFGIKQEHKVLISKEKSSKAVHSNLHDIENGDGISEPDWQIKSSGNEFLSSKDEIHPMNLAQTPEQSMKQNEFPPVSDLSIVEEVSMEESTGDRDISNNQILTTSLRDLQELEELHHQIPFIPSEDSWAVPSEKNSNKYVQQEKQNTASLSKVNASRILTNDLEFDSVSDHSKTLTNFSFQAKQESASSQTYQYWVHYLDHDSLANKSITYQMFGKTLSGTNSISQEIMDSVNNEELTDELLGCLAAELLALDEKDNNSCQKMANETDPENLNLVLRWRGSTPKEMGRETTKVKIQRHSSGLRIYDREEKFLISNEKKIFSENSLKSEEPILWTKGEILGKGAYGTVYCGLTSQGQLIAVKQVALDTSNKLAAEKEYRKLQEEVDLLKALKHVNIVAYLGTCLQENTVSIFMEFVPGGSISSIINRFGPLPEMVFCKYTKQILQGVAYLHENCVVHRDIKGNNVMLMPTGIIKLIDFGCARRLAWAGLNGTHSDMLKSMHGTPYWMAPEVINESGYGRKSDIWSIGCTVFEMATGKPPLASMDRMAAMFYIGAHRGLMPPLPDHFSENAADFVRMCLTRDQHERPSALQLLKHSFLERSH"}},
  "data": [
    {"smiles": "CC(C)c1ccc(CC(=O)N2CCN(c3ccc(C#N)nn3)CC2)cc1", "note": "[PZ-2891, 6-(4-(2-(4-isopropylphenyl)acetyl)piperazin-1-yl)pyridazine-3-carbonitrile]", "values": [
      {"measurement": "remaining binding at 10 µM", "setting": "[1]", "result": 76, "unit": "%"},
      {"measurement": "remaining binding at 10 µM", "setting": "[2]", "result": 85, "unit": "%"},
      {"measurement": "remaining binding at 10 µM", "setting": "[3]", "result": 73, "unit": "%"},
      {"measurement": "remaining binding at 10 µM", "setting": "[4]", "result": 100, "unit": "%"},
      {"measurement": "remaining binding at 10 µM", "setting": "[5]", "result": 80, "unit": "%"},
      {"measurement": "remaining binding at 10 µM", "setting": "[6]", "result": 93, "unit": "%"},
      {"measurement": "remaining binding at 10 µM", "setting": "[7]", "result": 78, "unit": "%"},
      {"measurement": "remaining binding at 10 µM", "setting": "[8]", "result": 74, "unit": "%"},
      {"measurement": "remaining binding at 10 µM", "setting": "[9]", "result": 90, "unit": "%"},
      {"measurement": "remaining binding at 10 µM", "setting": "[10]", "result": 93, "unit": "%"},
      {"measurement": "remaining binding at 10 µM", "setting": "[11]", "result": 78, "unit": "%"},
      {"measurement": "remaining binding at 10 µM", "setting": "[12]", "result": 60, "unit": "%"},
      {"measurement": "remaining binding at 10 µM", "setting": "[13]", "result": 94, "unit": "%"},
      {"measurement": "remaining binding at 10 µM", "setting": "[14]", "result": 73, "unit": "%"},
      {"measurement": "remaining binding at 10 µM", "setting": "[15]", "result": 72, "unit": "%"},
      {"measurement": "remaining binding at 10 µM", "setting": "[16]", "result": 100, "unit": "%"},
      {"measurement": "remaining binding at 10 µM", "setting": "[17]", "result": 62, "unit": "%"},
      {"measurement": "remaining binding at 10 µM", "setting": "[18]", "result": 81, "unit": "%"},
      {"measurement": "remaining binding at 10 µM", "setting": "[19]", "result": 82, "unit": "%"},
      {"measurement": "remaining binding at 10 µM", "setting": "[20]", "result": 87, "unit": "%"},
      {"measurement": "remaining binding at 10 µM", "setting": "[21]", "result": 93, "unit": "%"},
      {"measurement": "remaining binding at 10 µM", "setting": "[22]", "result": 69, "unit": "%"},
      {"measurement": "remaining binding at 10 µM", "setting": "[23]", "result": 65, "unit": "%"},
      {"measurement": "remaining binding at 10 µM", "setting": "[24]", "result": 84, "unit": "%"},
      {"measurement": "remaining binding at 10 µM", "setting": "[25]", "result": 95, "unit": "%"},
      {"measurement": "remaining binding at 10 µM", "setting": "[26]", "result": 97, "unit": "%"},
      {"measurement": "remaining binding at 10 µM", "setting": "[27]", "result": 91, "unit": "%"},
      {"measurement": "remaining binding at 10 µM", "setting": "[28]", "result": 75, "unit": "%"},
      {"measurement": "remaining binding at 10 µM", "setting": "[29]", "result": 96, "unit": "%"},
      {"measurement": "remaining binding at 10 µM", "setting": "[30]", "result": 76, "unit": "%"},
      {"measurement": "remaining binding at 10 µM", "setting": "[31]", "result": 76, "unit": "%"},
      {"measurement": "remaining binding at 10 µM", "setting": "[32]", "result": 69, "unit": "%"},
      {"measurement": "remaining binding at 10 µM", "setting": "[33]", "result": 42, "unit": "%"},
      {"measurement": "remaining binding at 10 µM", "setting": "[34]", "result": 84, "unit": "%"},
      {"measurement": "remaining binding at 10 µM", "setting": "[35]", "result": 74, "unit": "%"},
      {"measurement": "remaining binding at 10 µM", "setting": "[36]", "result": 94, "unit": "%"},
      {"measurement": "remaining binding at 10 µM", "setting": "[37]", "result": 71, "unit": "%"},
      {"measurement": "remaining binding at 10 µM", "setting": "[38]", "result": 93, "unit": "%"},
      {"measurement": "remaining binding at 10 µM", "setting": "[39]", "result": 69, "unit": "%"},
      {"measurement": "remaining binding at 10 µM", "setting": "[40]", "result": 98, "unit": "%"},
      {"measurement": "remaining binding at 10 µM", "setting": "[41]", "result": 76, "unit": "%"},
      {"measurement": "remaining binding at 10 µM", "setting": "[42]", "result": 74, "unit": "%"},
      {"measurement": "remaining binding at 10 µM", "setting": "[43]", "result": 89, "unit": "%"}
    ]}
  ]
}
